Data reported in patent US10369185B2, “Methods and compositions for enhancement of ability to concentrate” (KYOWA HAKKO BIO CO., LTD., priority 2014, dated 2019).
Peptide text beside a SMILES is read from it.

System: male runners
Experiment: Dynavision D2 MODE B reaction test with cognitive load (hits and time per hit in 60 s)
Assay type: in vivo, human
Set-up: Mode B Avg Δ, Mean Difference: unit not given here
Conditions: for Mode B Avg Δ (time per hit), group mean / Mode B Hits Δ, group mean: Post-Pre
Protocol: The testing protocol is depicted in FIG. 1. Data collection occurred on four separate occasions. Each session required participants to perform a 60-min run at 75% of their previously measured VO2max. Following this run, all participants performed a run at 90% of their VO2max until volitional exhaustion. All participants performed their first trial (DHY) without any rehydration. During this session the total weight lost during the trial was determined. The fluid loss that occurred during this session was then used to determine the participant's swear rate (L·hr^−1). To continue in the study, participant's sweat rate was or exceeded 1.3 L·hr^−1. During the next three trails participants were provided 250 ml of fluid every 15 minutes in equal amounts. During one of the trials participants consumed only a flavored sports drink (ELECT only), while during the other trials participants consumed the alanine-glutamine supplement (Sustamine™) mixed in the same flavored sports drink at either a low (LD: 300 mg per 500 ml) or high (HD: 1 g per 500 ml) dose. Measurement of upper body reaction time was performed on the Dynavision D2 Visuomotor Training Device (D2; Dynavision International LLC, West Chester, Ohio). The D2 is a light training reaction device, developed to train sensory motor integration through the visual system. It consists of a board (4 foot×4 foot) that can be raised or lowered relative to the height of the operator. It contains 64 target buttons arranged into five concentric circles surrounding a center screen that can be illuminated to serve as a stimulus for the participant. Participants were required to assume a comfortable athletic stance and stand at a distance from the board where they could easily reach all of the lights. The board height was adjusted so the LCD screen was located just below eye level. A total of three different reaction tests were conducted. Participants were instructed to fixate their gaze on the LCD screen in the middle of the board and to keep their focus there for the entirety of the experiment. The third assessment (MODE B) was similar to the previous measure in that participants were required to react to a visual stimulus as it changed positions on the board. However, the difference between the two assessments was that the stimulus remained for 1 s before it changed to another random location, and each participant was required to verbally recite a five digit number that was presented on the center screen of the D2 during each assessment. The appearance of the digits placed an additional demand on the information processing resources of the participant. The participant was instructed to successfully identify and strike each stimulus before it changed position and score as many strikes as possible within 60 s. The number of successful hits was recorded for each participant. Additionally, to make inferences on true effects of the different trials on reaction performance, an analysis based on the magnitude of differences, calculated from 90% confidence intervals, as previously described by Batterham and Hopkins (2005), was used in this study. Differences in Post-Pre performance (Δresponse) between trials were analyzed via a published spreadsheet (Hopkins 2007), with the smallest non-trivial change set at 20% of the grand standard deviation (Batterham and Hopkins 2005). All data are expressed as a mean effect±SD, with percent chances of a beneficial, trivial or negative outcome. Qualitative inferences, based on quantitative chances were assessed as: <1% almost certainly not, 1-5% very unlikely, 5-25% unlikely, 25-75% possibly, 75-95% likely, 95-99% very likely and >99% almost certainly (Hopkins 2002).

C[C@H](N)C(=O)N[C@@H](CCC(N)=O)C(=O)O [L-Alanyl-L-Glutamine] (H-Ala-Gln-OH)
Mode B Avg Δ, Interpretation (Dehydration vs High Dose): likely negative | Mode B Avg Δ, Mean Difference (Dehydration vs High Dose): −0.023 | Mode B Avg Δ, Percent Negative (Dehydration vs High Dose): 82.12% | Mode B Avg Δ, Percent Positive (Dehydration vs High Dose): 1.37% | Mode B Avg Δ, Percent Trivial (Dehydration vs High Dose): 16.50% | Mode B Hits Δ, Interpretation (Dehydration vs High Dose): Unclear | Mode B Hits Δ, Mean Difference (Dehydration vs High Dose): 0.67 | Mode B Hits Δ, Percent Negative (Dehydration vs High Dose): 20.22% | Mode B Hits Δ, Percent Positive (Dehydration vs High Dose): 31.57% | Mode B Hits Δ, Percent Trivial (Dehydration vs High Dose): 48.20% | Mode B Avg Δ, Interpretation (Dehydration vs Low Dose): Unclear | Mode B Avg Δ, Mean Difference (Dehydration vs Low Dose): −0.0075 | Mode B Avg Δ, Percent Negative (Dehydration vs Low Dose): 41.89% | Mode B Avg Δ, Percent Positive (Dehydration vs Low Dose): 8.13% | Mode B Avg Δ, Percent Trivial (Dehydration vs Low Dose): 49.99% | Mode B Hits Δ, Interpretation (Dehydration vs Low Dose): Unclear | Mode B Hits Δ, Mean Difference (Dehydration vs Low Dose): −1.1 | Mode B Hits Δ, Percent Negative (Dehydration vs Low Dose): 31.06% | Mode B Hits Δ, Percent Positive (Dehydration vs Low Dose): 10.62% | Mode B Hits Δ, Percent Trivial (Dehydration vs Low Dose): 58.32% | Mode B Avg Δ, Interpretation (Gatorade vs High Dose): No | Mode B Hits Δ, Interpretation (Gatorade vs High Dose): Unclear | Mode B Hits Δ, Mean Difference (Gatorade vs High Dose): −0.5 | Mode B Hits Δ, Percent Negative (Gatorade vs High Dose): 33.43% | Mode B Hits Δ, Percent Positive (Gatorade vs High Dose): 25.96% | Mode B Hits Δ, Percent Trivial (Gatorade vs High Dose): 40.61% | Mode B Avg Δ (time per hit), group mean (High Dose (1 g per 500 ml)): 0 | Mode B Hits Δ, group mean (High Dose (1 g per 500 ml)): 2.75 | Mode B Avg Δ (time per hit), group mean (Low Dose (300 mg per 500 ml)): −0.0158 | Mode B Hits Δ, group mean (Low Dose (300 mg per 500 ml)): 4.5 | Mode B Avg Δ, Interpretation (Low Dose vs Gatorade): possibly negative | Mode B Avg Δ, Mean Difference (Low Dose vs Gatorade): −0.016 | Mode B Avg Δ, Percent Negative (Low Dose vs Gatorade): 70.44% | Mode B Avg Δ, Percent Positive (Low Dose vs Gatorade): 1.16% | Mode B Avg Δ, Percent Trivial (Low Dose vs Gatorade): 28.39% | Mode B Hits Δ, Interpretation (Low Dose vs Gatorade): Unclear | Mode B Hits Δ, Mean Difference (Low Dose vs Gatorade): 2.3 | Mode B Hits Δ, Percent Negative (Low Dose vs Gatorade): 25.04% | Mode B Hits Δ, Percent Positive (Low Dose vs Gatorade): 48.77% | Mode B Hits Δ, Percent Trivial (Low Dose vs Gatorade): 26.19% | Mode B Avg Δ, Interpretation (Low Dose vs High Dose): Unclear | Mode B Avg Δ, Mean Difference (Low Dose vs High Dose): −0.016 | Mode B Avg Δ, Percent Negative (Low Dose vs High Dose): 64.75% | Mode B Avg Δ, Percent Positive (Low Dose vs High Dose): 5.03% | Mode B Avg Δ, Percent Trivial (Low Dose vs High Dose): 30.22% | Mode B Hits Δ, Interpretation (Low Dose vs High Dose): Unclear | Mode B Hits Δ, Mean Difference (Low Dose vs High Dose): 1.8 | Mode B Hits Δ, Percent Negative (Low Dose vs High Dose): 7.59% | Mode B Hits Δ, Percent Positive (Low Dose vs High Dose): 40.19% | Mode B Hits Δ, Percent Trivial (Low Dose vs High Dose): 52.22% | successful hits in MODE B and time per successful hits (between trials): No differences were noted between trials
